Measurements as given in the NIST ThermoML archive (doi:10.1016/j.jct.2018.02.013).

How the values were obtained:
[1] = 101.33 kPa, Liquid; for thermal conductivity: transient hot wire; for mass density: Vibrating tube method; for viscosity: Cone and plate viscometry; for electrical conductivity: Direct current cell with electrodes
[2] = molar heat capacity at constant pressure; settings: 101.33 kPa, Liquid, Small sample (50 mg) DSC
[3] = wn = mass fraction of the nth substance listed; settings: 101 kPa, Liquid, w2 = 0.1668; for mass density: Vibrating tube method; for thermal conductivity: transient hot wire; for viscosity: Cone and plate viscometry; for electrical conductivity: Direct current cell with electrodes
[4] = molar heat capacity at constant pressure; wn = mass fraction of the nth substance listed; settings: 101 kPa, Liquid, Small sample (50 mg) DSC, w2 = 0.1668

CCCC(=O)[O-].CCCCCCCCCCCCCC[P+](CCCCCC)(CCCCCC)CCCCCC [trihexyl(tetradecyl)phosphonium butyrate]
Settings | electrical conductivity [S/m] | mass density [kg/m3] | molar heat capacity at constant pressure [J/K/mol] | thermal conductivity [W/m/K] | viscosity [mPa·s]
[1], 277.77 K | – | – | – | 0.16 | –
[1], 288.17 K | – | – | – | 0.159 | –
[1], 293.15 K | – | 893 | – | – | –
[1], 293.2 K | – | – | – | – | 334.3
[1], 295.2 K | 0.00389 | – | – | – | –
[1], 298.15 K | – | 890.4 | – | – | –
[1], 298.2 K | – | – | – | – | 251.1
[1], 298.48 K | – | – | – | 0.1566 | –
[1], 303.15 K | – | 887.8 | – | – | –
[1], 303.2 K | – | – | – | – | 190.2
[1], 303.8 K | 0.00631 | – | – | – | –
[1], 306.44 K | – | – | – | 0.1553 | –
[1], 308.2 K | – | – | – | – | 146.3
[1], 308.5 K | 0.0083 | – | – | – | –
[1], 313.15 K | – | 881.2 | – | – | –
[1], 313.2 K | – | – | – | – | 115
[1], 313.9 K | 0.0106 | – | – | – | –
[1], 318.11 K | – | – | – | 0.1543 | –
[1], 318.2 K | – | – | – | – | 91.46
[1], 318.5 K | 0.0137 | – | – | – | –
[1], 323.15 K | – | 875.1 | – | – | –
[1], 323.2 K | – | – | – | – | 74.08
[1], 323.6 K | 0.0172 | – | – | – | –
[1], 327.69 K | – | – | – | 0.1526 | –
[1], 328.2 K | – | – | – | – | 60.22
[1], 328.8 K | 0.0214 | – | – | – | –
[1], 333.15 K | – | 869 | – | – | –
[1], 333.2 K | – | – | – | – | 49.78
[1], 333.8 K | 0.0261 | – | – | – | –
[1], 336.59 K | – | – | – | 0.1509 | –
[1], 338.2 K | – | – | – | – | 41.11
[1], 338.7 K | 0.0315 | – | – | – | –
[1], 343.15 K | – | 862.7 | – | – | –
[1], 343.2 K | – | – | – | – | 34.26
[1], 343.9 K | 0.0377 | – | – | – | –
[1], 348.16 K | – | – | – | 0.1503 | –
[1], 348.2 K | – | – | – | – | 28.85
[1], 349.1 K | 0.0446 | – | – | – | –
[1], 353.15 K | – | 856.7 | – | – | –
[1], 353.2 K | – | – | – | – | 24.66
[1], 355.83 K | – | – | – | 0.1492 | –
[1], 358.2 K | – | – | – | – | 21.36
[1], 363.15 K | – | 850.3 | – | – | –
[1], 363.2 K | – | – | – | – | 18.76
[1], 368.2 K | – | – | – | – | 16.49
[2], 293.15 K | – | – | 1107.1 | – | –
[2], 298.15 K | – | – | 1112.8 | – | –
[2], 303.15 K | – | – | 1118.5 | – | –
[2], 308.15 K | – | – | 1123.6 | – | –
[2], 313.15 K | – | – | 1129.9 | – | –
[2], 318.15 K | – | – | 1136.2 | – | –
[2], 323.15 K | – | – | 1142.5 | – | –
[2], 328.15 K | – | – | 1148.2 | – | –
[2], 333.15 K | – | – | 1154.5 | – | –
[2], 338.15 K | – | – | 1161.3 | – | –
[2], 343.15 K | – | – | 1168.2 | – | –
[2], 348.15 K | – | – | 1175 | – | –
[2], 353.15 K | – | – | 1181.9 | – | –
[2], 358.15 K | – | – | 1188.7 | – | –
[2], 363.15 K | – | – | 1196.1 | – | –

CCCC(=O)[O-].CCCCCCCCCCCCCC[P+](CCCCCC)(CCCCCC)CCCCCC [trihexyl(tetradecyl)phosphonium butyrate] + O
Settings | electrical conductivity [S/m] | mass density [kg/m3] | molar heat capacity at constant pressure [J/K/mol] | thermal conductivity [W/m/K] | viscosity [mPa·s]
[3], 298.15 K | – | 907.8 | – | 0.189 | –
[3], 298.2 K | – | – | – | – | 61.46
[3], 302.4 K | 0.11 | – | – | – | –
[3], 303.15 K | – | 904.6 | – | – | –
[3], 303.2 K | – | – | – | – | 48.17
[3], 303.9 K | 0.118 | – | – | – | –
[3], 307.87 K | – | – | – | 0.188 | –
[3], 308.2 K | – | – | – | – | 38.54
[3], 308.4 K | 0.14 | – | – | – | –
[3], 313.15 K | – | 898.3 | – | – | –
[3], 313.2 K | 0.168 | – | – | – | 31.4
[3], 317.99 K | – | – | – | 0.1859 | –
[3], 318.2 K | – | – | – | – | 25.96
[3], 318.8 K | 0.205 | – | – | – | –
[3], 323.15 K | – | 891.9 | – | – | –
[3], 323.2 K | 0.235 | – | – | – | 21.94
[3], 327.77 K | – | – | – | 0.1848 | –
[3], 328.2 K | – | – | – | – | 18.8
[3], 328.4 K | 0.277 | – | – | – | –
[3], 333.15 K | – | 885 | – | – | –
[3], 333.2 K | – | – | – | – | 16.05
[3], 333.4 K | 0.322 | – | – | – | –
[3], 338.18 K | – | – | – | 0.1828 | –
[3], 338.2 K | – | – | – | – | 13.85
[3], 338.8 K | 0.38 | – | – | – | –
[3], 343.15 K | – | 877.8 | – | – | –
[3], 343.2 K | 0.423 | – | – | – | 11.94
[3], 347.9 K | – | – | – | 0.1818 | –
[3], 348.2 K | – | – | – | – | 10.37
[3], 349.7 K | 0.499 | – | – | – | –
[3], 353.15 K | – | 870.5 | – | – | –
[3], 353.2 K | – | – | – | – | 9.056
[3], 358.2 K | – | – | – | 0.1808 | 8.136
[3], 363.15 K | – | 863.9 | – | – | –
[3], 363.2 K | – | – | – | – | 7.26
[3], 368.2 K | – | – | – | – | 7.063
[4], 298.15 K | – | – | 316.94 | – | –
[4], 303.15 K | – | – | 319.46 | – | –
[4], 308.15 K | – | – | 321.6 | – | –
[4], 313.15 K | – | – | 324.22 | – | –
[4], 318.15 K | – | – | 327.2 | – | –
[4], 323.15 K | – | – | 330.19 | – | –
[4], 328.15 K | – | – | 333.45 | – | –
[4], 333.15 K | – | – | 336.44 | – | –
[4], 338.15 K | – | – | 340.64 | – | –
[4], 343.15 K | – | – | 344.65 | – | –
[4], 348.15 K | – | – | 348.29 | – | –
[4], 353.15 K | – | – | 351.74 | – | –
[4], 358.15 K | – | – | 356.22 | – | –
[4], 363.15 K | – | – | 360.42 | – | –
